In patent publication US10364256B2 (GlaxoSmithKline Intellectual Property Development Limited, priority 2015, dated 2019):

Columns and labels:
[1] = target: T1, Keap1 Kelch domain (321-609) / TAMRA-labeled 16mer NRF2 peptide (ETGE motif) (Homo sapiens, UniProt Q14145); test: NRF2-Keap1 FP Assay (Keap1 Kelch fluorescence polarization); type: binding; conditions: 20 nM Keap1 (321-609), 8 nM Tamra labeled peptide
T1 construct: the Kelch domain (321-609) of Keap1 is used
How it was run: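 Compound dilutions (3-fold) were incubated 1 hr at room temperature with 20 nM Keap1 Kelch (321-609) and 8 nM TAMRA-labeled ETGE 16mer peptide. Buffer was 50 mM Tris pH 8.0, 100 mM NaCl, 5 mM MgCl2, 1 mM DTT, 2 mM CHAPS, 0.005% BSA. Fluorescence polarization (mP) was normalized to controls and fitted with a four-parameter equation to give pIC50.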

[2] = target: T2, full length Keap1 protein / full length NRF2 protein (Homo sapiens, UniProt Q14145); test: NRF2-Keap1 TR-FRET Assay; type: binding; conditions: 25 nM Keap1-FlagHis and 50 nM biotin-NRF2 added
T2 construct: full length NRF2 protein and full length Keap1 protein (Keap1 exists a dimer) are used; His
T2 sequence (Q14145 whole entry): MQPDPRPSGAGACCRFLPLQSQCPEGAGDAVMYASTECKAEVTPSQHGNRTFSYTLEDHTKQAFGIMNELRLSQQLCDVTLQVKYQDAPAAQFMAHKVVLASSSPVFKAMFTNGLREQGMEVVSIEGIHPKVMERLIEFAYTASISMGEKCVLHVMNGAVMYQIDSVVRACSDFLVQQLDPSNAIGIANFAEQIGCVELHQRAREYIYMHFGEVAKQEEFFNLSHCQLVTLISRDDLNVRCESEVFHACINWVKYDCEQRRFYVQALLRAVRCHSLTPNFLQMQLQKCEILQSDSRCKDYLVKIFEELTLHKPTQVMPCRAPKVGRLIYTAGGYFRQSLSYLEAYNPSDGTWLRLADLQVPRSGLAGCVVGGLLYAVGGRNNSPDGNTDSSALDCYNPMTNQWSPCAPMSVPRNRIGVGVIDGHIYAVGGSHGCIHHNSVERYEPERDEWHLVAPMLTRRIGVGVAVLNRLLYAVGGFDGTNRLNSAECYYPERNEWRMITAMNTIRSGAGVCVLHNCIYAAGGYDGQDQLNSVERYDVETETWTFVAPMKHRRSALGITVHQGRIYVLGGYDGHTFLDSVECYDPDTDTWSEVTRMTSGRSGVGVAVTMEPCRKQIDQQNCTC
How it was run: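 Displacement of biotinylated full-length NRF2 from full-length Keap1 read by Eu/APC TR-FRET (665/615 nm) after 1 h detection at RT. Compound, 3-fold series, first incubated with Keap1 at 37 °C for 2.25 h, NRF2 then added at 4 °C for 1.25 h; pIC50 by four-parameter equation.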

T1 sequence (Q14145 321-609): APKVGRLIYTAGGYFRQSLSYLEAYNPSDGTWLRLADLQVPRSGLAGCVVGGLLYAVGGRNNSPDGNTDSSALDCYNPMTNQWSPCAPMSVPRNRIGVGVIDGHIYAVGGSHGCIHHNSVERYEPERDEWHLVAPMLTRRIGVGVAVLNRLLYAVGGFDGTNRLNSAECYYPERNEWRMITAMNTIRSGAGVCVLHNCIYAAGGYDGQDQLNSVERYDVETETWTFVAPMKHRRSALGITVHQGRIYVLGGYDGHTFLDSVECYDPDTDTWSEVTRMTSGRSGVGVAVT

Row | Compound | IC50 [1] [nM] | IC50 [2] [nM]
1 | O=C(O)c1cnn(-c2cccc(-c3cccc(C(=O)N4C5CCCC4CCC5)c3F)c2)c1C1CC1 [Example 34, 1-[3-(3-{9-azabicyclo[3.3.1]nonane-9-carbonyl}-2-fluorophenyl)phenyl]-5-cyclopropyl-1H-pyrazole-4-carboxylic Acid] | 10 to 100 | 100 to 1000
2 | CC1(C)CCc2cnn(-c3cccc(-c4cccc(-n5ncc(C(=O)O)c5C5CC5)c4)c3)c21 [Example 63, 5-Cyclopropyl-1-(3′-(6,6-dimethyl-5,6-dihydrocyclopenta[c]pyrazol-1(4H)-yl)-[1,1′-biphenyl]-3-yl)-1H-pyrazole-4-carboxylic Acid] | 100 to 1000 | 100 to 1000
3 | CCC[C@@H]1CO[C@@H](C)CN1C(=O)c1cccc(-c2cccc(-n3ncc(C(=O)O)c3C3CC3)c2)c1F [Example 45, 5-cyclopropyl-1-(3-{2-fluoro-3-[(2S,5R)-2-methyl-5-propylmorpholine-4-carbonyl]phenyl}phenyl)-1H-pyrazole-4-carboxylic Acid] | 10 to 100 | 100 to 1000

The next lines start with the values.

Row | IC50 [1] [nM] | IC50 [2] [nM] | Compound
4 | 10 to 100 | 100 to 1000 | CC1CC(C)CN(C(=O)c2cccc(-c3cccc(-n4ncc(C(=O)O)c4C4CC4)c3)c2F)C1 (centres unmarked) [Example 53, 5-Cyclopropyl-1-[3′-(3,5-dimethyl-piperidine-1-carbonyl)-2′-fluoro-biphenyl-3-yl]-1H-pyrazole-4-carboxylic Acid]
5 | 10 to 100 | 100 to 1000 | CC1CCCN(C(=O)c2cccc(-c3cccc(-n4ncc(C(=O)O)c4C4CC4)c3)c2F)CC1 (centres unmarked) [Example 29, 5-Cyclopropyl-1-{3-[2-fluoro-3-(4-methylazepane-1-carbonyl)phenyl]phenyl}-1H-pyrazole-4-carboxylic Acid]
6 | 10 to 100 | 10 to 100 | COCC1CCCCN1C(=O)c1cccc(-c2cccc(-n3ncc(C(=O)O)c3C3C[C@H]3c3cn(C)nn3)c2)c1F (mixture of isomers) [Example 264, 1-(3′-(2-(Methoxymethyl)piperidine-1-carbonyl)-2′-fluoro-[1,1′-biphenyl]-3-yl)-5-(trans-2-(1-methyl-1H-1,2,3-triazol-4-yl)cyclopropyl)-1H-pyrazole-4-carboxylic Acid]
7 | 10 to 100 | 10 to 100 | C[C@@H]1CCC[C@H](C)N1C(=O)c1cccc(-c2cccc(-n3ncc(C(=O)O)c3[C@H]3C[C@@H]3c3cn(C)nn3)c2)c1F (single isomer, unassigned) [Example 261]
